# Measurements taken from ChEMBL document CHEMBL5518248, “Design, Synthesis, and Biological Evaluation of Novel Arylomycins against Multidrug-Resistant Gram-Negative Bacteria” (J Med Chem, 2024).
# Legend:
# Pseudomonas aeruginosa [1] = assay: Antibacterial activity against Pseudomonas aeruginosa 19-5 assessed as inhibition of bacterial growth measured after 18 to 20 hrs by broth microdilution method; format: functional; conditions: time 18-20 hrs
# HepG2 [2] = assay: Cytotoxicity against human HepG2 cells assessed as inhibition of cell growth at 100 uM incubated for 24 hrs by CCK8 method relative to control; format: functional
# Escherichia coli [3] = assay: Antibacterial activity against Escherichia coli 14-4 assessed as inhibition of bacterial growth measured after 18 to 20 hrs by broth microdilution method; format: functional; conditions: time 18-20 hrs
# Klebsiella pneumoniae [4] = assay: Antibacterial activity against Klebsiella pneumoniae 15-4 assessed as inhibition of bacterial growth measured after 18 to 20 hrs by broth microdilution method; format: functional; conditions: time 18-20 hrs
# [5] = Cytotoxicity against HEK293T cells assessed as inhibition of cell growth incubated for 24 hrs by CCK8 method; format: toxicity, cell-based, HEK-293T; conditions: human
# Acinetobacter baumannii [6] = assay: Antibacterial activity against Acinetobacter baumannii 17-2 assessed as inhibition of bacterial growth measured after 18 to 20 hrs by broth microdilution method; format: functional; conditions: time 18-20 hrs
# Klebsiella pneumoniae [7] = assay: Antibacterial activity against Klebsiella pneumoniae 15-5 assessed as inhibition of bacterial growth measured after 18 to 20 hrs by broth microdilution method; format: functional; conditions: time 18-20 hrs
# Jurkat [8] = assay: Cytotoxicity against human Jurkat cells assessed as inhibition of cell growth at 100 uM incubated for 24 hrs by CCK8 method relative to control; format: functional
# Klebsiella pneumoniae [9] = assay: Antibacterial activity against Klebsiella pneumoniae 15-1 assessed as inhibition of bacterial growth measured after 18 to 20 hrs by broth microdilution method; format: functional; conditions: time 18-20 hrs
# Jurkat [10] = assay: Cytotoxicity against human Jurkat cells assessed as inhibition of cell growth incubated for 24 hrs by CCK8 method; format: functional, cell-based
# HepG2 [11] = assay: Cytotoxicity against human HepG2 cells assessed as inhibition of cell growth incubated for 24 hrs by CCK8 method; format: functional, cell-based; conditions: HepG2, 24 h
# Escherichia coli [12] = assay: Antibacterial activity against Escherichia coli 14-2 assessed as inhibition of bacterial growth measured after 18 to 20 hrs by broth microdilution method; format: functional; conditions: time 18-20 hrs
# Acinetobacter baumannii [13] = assay: Antibacterial activity against Acinetobacter baumannii 17-8 assessed as inhibition of bacterial growth measured after 18 to 20 hrs by broth microdilution method; format: functional; conditions: time 18-20 hrs
# Escherichia coli [14] = assay: Antibacterial activity against Escherichia coli ATCC 35218 assessed as inhibition of bacterial growth measured after 18 to 20 hrs by broth microdilution method; format: functional; conditions: time 18-20 hrs
# [15] = Cytotoxicity against HEK293T cells assessed as inhibition of cell growth at 100 uM incubated for 24 hrs by CCK8 method relative to control; format: toxicity, cell-based, HEK-293T; conditions: human
# Pseudomonas aeruginosa [16] = assay: Antibacterial activity against Pseudomonas aeruginosa 17-1 assessed as inhibition of bacterial growth measured after 18 to 20 hrs by broth microdilution method; format: functional; conditions: time 18-20 hrs
# [17] = Half life in Sprague-Dawley rat at 10 mg/kg, iv measured upto 24 hrs LC-MS/MS analysis; format: ADME, organism-based; conditions: in vivo
# [18] = Volume of distribution at steady state in Sprague-Dawley rat at 10 mg/kg, iv measured upto 24 hrs LC-MS/MS analysis; format: ADME, organism-based; conditions: in vivo, read-out: Vdss
# [19] = AUC (0 to t) in Sprague-Dawley rat at 10 mg/kg, iv measured upto 24 hrs LC-MS/MS analysis; format: ADME, organism-based; conditions: Sprague-Dawley, in vivo
# [20] = Clearance in Sprague-Dawley rat at 10 mg/kg, iv measured upto 24 hrs LC-MS/MS analysis; format: ADME, organism-based; conditions: in vivo
# [21] = MRT in Sprague-Dawley rat at 10 mg/kg, iv measured upto 24 hrs LC-MS/MS analysis; format: ADME, organism-based; conditions: in vivo
MIC (Pseudomonas aeruginosa [1]),MIC (Escherichia coli [3]),MIC (Klebsiella pneumoniae [4]),MIC (Acinetobacter baumannii [6]),MIC (Klebsiella pneumoniae [7]),MIC (Klebsiella pneumoniae [9]),MIC (Escherichia coli [12]),MIC (Acinetobacter baumannii [13]),MIC (Escherichia coli [14]),MIC (Pseudomonas aeruginosa [16]),Structure (SMILES),inhibition at 100 µM (HepG2 [2]),IC50 at 24 h [5],inhibition at 100 µM (Jurkat [8]),IC50 (Jurkat [10]),IC50 (HepG2 [11]),"inhibition at 24 h, 100 µM [15]",further results
8 µg/mL,≤ 0.03 µg/mL,≤ 0.03 µg/mL,0.5 µg/mL,≤ 0.03 µg/mL,≤ 0.03 µg/mL,≤ 0.03 µg/mL,0.125 µg/mL,≤ 0.03 µg/mL,8 µg/mL,CCCCSSCc1ccc(-c2ncc(C(=O)N[C@@H](CCN)C(=O)N(C)[C@@H]3C(=O)N[C@@H](C)C(=O)N[C@H](C(=O)NCC#N)Cc4ccc(OCCN)c(c4)-c4cc3ccc4OCCN)c(C)n2)cc1.O=C(O)C(F)(F)F.O=C(O)C(F)(F)F.O=C(O)C(F)(F)F.O=C(O)C(F)(F)F,-3.33%,> 100 µM,50.6%,> 100 µM,> 100 µM,41%,
16 µg/mL,0.06 µg/mL,≤ 0.03 µg/mL,0.5 µg/mL,≤ 0.03 µg/mL,≤ 0.03 µg/mL,≤ 0.03 µg/mL,1 µg/mL,≤ 0.03 µg/mL,32 µg/mL,Cc1nc(-c2ccc(SSC(C)(C)C)cc2)ncc1C(=O)N[C@@H](CCN)C(=O)N(C)[C@@H]1C(=O)N[C@@H](C)C(=O)N[C@H](C(=O)O)Cc2ccc(OCCN)c(c2)-c2cc1ccc2OCCN.O=C(O)C(F)(F)F.O=C(O)C(F)(F)F.O=C(O)C(F)(F)F.O=C(O)C(F)(F)F,-4.95%,> 100 µM,44.8%,> 100 µM,> 100 µM,26.1%,
4 µg/mL,≤ 0.03 µg/mL,≤ 0.03 µg/mL,0.25 µg/mL,≤ 0.03 µg/mL,≤ 0.03 µg/mL,≤ 0.03 µg/mL,0.5 µg/mL,≤ 0.03 µg/mL,4 µg/mL,Cc1nc(-c2ccc(SSC(C)(C)C)cc2)ncc1C(=O)N[C@@H](CCN)C(=O)N(C)[C@@H]1C(=O)N[C@@H](C)C(=O)N[C@H](C(=O)NCC#N)Cc2ccc(OCCN)c(c2)-c2cc1ccc2OCCN.O=C(O)C(F)(F)F.O=C(O)C(F)(F)F.O=C(O)C(F)(F)F.O=C(O)C(F)(F)F,-1.65%,> 100 µM,38.2%,> 100 µM,> 100 µM,51.5%,
32 µg/mL,≤ 0.03 µg/mL,≤ 0.03 µg/mL,0.25 µg/mL,≤ 0.03 µg/mL,≤ 0.03 µg/mL,≤ 0.03 µg/mL,0.5 µg/mL,≤ 0.03 µg/mL,4 µg/mL,Cc1nc(-c2ccc(CSSC(C)(C)C)cc2)ncc1C(=O)N[C@@H](CCN)C(=O)N(C)[C@@H]1C(=O)N[C@@H](C)C(=O)N[C@H](C(=O)O)Cc2ccc(OCCN)c(c2)-c2cc1ccc2OCCN.O=C(O)C(F)(F)F.O=C(O)C(F)(F)F.O=C(O)C(F)(F)F.O=C(O)C(F)(F)F,-0.02%,> 100 µM,27.7%,> 100 µM,> 100 µM,36.6%,
,,,,,,,,,,CCCCSSCc1ccc(-c2ncc(C(=O)N[C@@H](CCN)C(=O)N(C)[C@@H]3C(=O)N[C@@H](C)C(=O)N[C@H](C(=O)NCC#N)Cc4ccc(OCCN)c(c4)-c4cc3ccc4OCCN)c(C)n2)cc1,,,,,,,half-life [17]: 1.04 h; Vd [18]: 0.273 L/kg; AUC(0-t) at 24 h [19]: 46300 ng·h/mL; clearance [20]: 3.6 mL/min/kg; MRT [21]: 1.27 h
4 µg/mL,≤ 0.03 µg/mL,0.06 µg/mL,0.5 µg/mL,0.06 µg/mL,≤ 0.03 µg/mL,≤ 0.03 µg/mL,0.125 µg/mL,≤ 0.03 µg/mL,4 µg/mL,Cc1nc(-c2ccc(CSSCC(C)C)cc2)ncc1C(=O)N[C@@H](CCN)C(=O)N(C)[C@@H]1C(=O)N[C@@H](C)C(=O)N[C@H](C(=O)NCC#N)Cc2ccc(OCCN)c(c2)-c2cc1ccc2OCCN.O=C(O)C(F)(F)F.O=C(O)C(F)(F)F.O=C(O)C(F)(F)F.O=C(O)C(F)(F)F,-4.7%,> 100 µM,18.4%,> 100 µM,> 100 µM,42.7%,

Structure (SMILES),MIC (Pseudomonas aeruginosa [1]),MIC (Escherichia coli [3]),MIC (Klebsiella pneumoniae [4]),MIC (Acinetobacter baumannii [6]),MIC (Klebsiella pneumoniae [7]),MIC (Klebsiella pneumoniae [9]),MIC (Escherichia coli [12]),MIC (Acinetobacter baumannii [13]),MIC (Escherichia coli [14]),MIC (Pseudomonas aeruginosa [16]),inhibition at 100 µM (HepG2 [2]),IC50 at 24 h [5],inhibition at 100 µM (Jurkat [8]),IC50 (Jurkat [10]),IC50 (HepG2 [11]),"inhibition at 24 h, 100 µM [15]",further results
Cc1nc(-c2ccc(CSSC(C)(C)C)cc2)ncc1C(=O)N[C@@H](CCN)C(=O)N(C)[C@@H]1C(=O)N[C@@H](C)C(=O)N[C@H](C(=O)NCC#N)Cc2ccc(OCCN)c(c2)-c2cc1ccc2OCCN.O=C(O)C(F)(F)F.O=C(O)C(F)(F)F.O=C(O)C(F)(F)F.O=C(O)C(F)(F)F,4 µg/mL,≤ 0.03 µg/mL,≤ 0.03 µg/mL,0.125 µg/mL,≤ 0.03 µg/mL,≤ 0.03 µg/mL,≤ 0.03 µg/mL,0.125 µg/mL,≤ 0.03 µg/mL,4 µg/mL,28.4%,> 100 µM,34.6%,> 100 µM,> 100 µM,43%,
